Data taken from the OligoGym collection.
After the bases stand the sugars from the 5' end (letter, count) and the backbone: PS all phosphorothioate, else s phosphorothioate and o phosphodiester by linkage. Methylation of C is not given here. e = 2'-O-(2-methoxyethyl) (MOE); k = constrained ethyl (cEt); d = 2'-deoxy (DNA); m = 2'-O-methyl

Biological target: HSD17B13
Details: ASO, HepaRG

## GGTGGTAACGGTGATC (sugars kkdddddddddkekek, PS)
1 µM
  target mRNA inhibition: 39%

## GGTTGAGATAAAGCTG (sugars k3 d10 k3, PS)
0.02 µM
  target mRNA inhibition: 0%
0.078 µM
  target mRNA inhibition: 0%
0.313 µM
  target mRNA inhibition: 37%
1 µM
  target mRNA inhibition: 76%
1.25 µM
  target mRNA inhibition: 65%
5 µM
  target mRNA inhibition: 86%

## GGTTGAGATAAAGCTG (sugars kkdddddddddkekek, PS)
1 µM
  target mRNA inhibition: 60%

## GTAAACTAAAGTACTT (sugars k3 d10 k3, PS)
1 µM
  target mRNA inhibition: 0%

## GTAAACTGTATGCCTC (sugars k3 d10 k3, PS)
0.02 µM
  target mRNA inhibition: 5%
0.078 µM
  target mRNA inhibition: 30%
0.313 µM
  target mRNA inhibition: 43%
1 µM
  target mRNA inhibition: 74%
1.25 µM
  target mRNA inhibition: 78%
5 µM
  target mRNA inhibition: 86%

## GTAAAGTTTGTTAGAG (sugars k3 d10 k3, PS)
1 µM
  target mRNA inhibition: 54%

## GTAACGGTGATCAAAT (sugars k3 d1 m1 d8 k3, PS)
1 µM
  target mRNA inhibition: 21%

## GTAACGGTGATCAAAT (sugars k3 d9 k3 e1, PS)
1 µM
  target mRNA inhibition: 32%

## GTAAGAGTCAGTATCC (sugars k3 d10 k3, PS)
1 µM
  target mRNA inhibition: 47%

## GTAATCACAAGTAAGG (sugars kkdddddddddkekek, PS)
0.02 µM
  target mRNA inhibition: 0%
0.078 µM
  target mRNA inhibition: 2%
0.313 µM
  target mRNA inhibition: 35%
1 µM
  target mRNA inhibition: 72%
1.25 µM
  target mRNA inhibition: 49%
5 µM
  target mRNA inhibition: 70%

## GTAATGGTAAACTGTA (sugars k3 d10 k3, PS)
1 µM
  target mRNA inhibition: 70%

## GTAATTAATCTTGTTC (sugars k3 d10 k3, PS)
1 µM
  target mRNA inhibition: 52%

## GTAATTACTTCTGATG (sugars k3 d10 k3, PS)
1 µM
  target mRNA inhibition: 41%

## GTAATTCTAAACTAGT (sugars k3 d10 k3, PS)
1 µM
  target mRNA inhibition: 39%

## GTAATTGCATCTGCTC (sugars k3 d10 k3, PS)
1 µM
  target mRNA inhibition: 51%

## GTAATTTTCAGATCCC (sugars k3 d10 k3, PS)
0.02 µM
  target mRNA inhibition: 24%
0.078 µM
  target mRNA inhibition: 43%
0.313 µM
  target mRNA inhibition: 69%
1 µM
  target mRNA inhibition: 82%
1.25 µM
  target mRNA inhibition: 88%
5 µM
  target mRNA inhibition: 88%

## GTAAUCACAAGTAAGG (sugars k3 d1 m1 d8 k3, PS)
1 µM
  target mRNA inhibition: 20%

## GTACACGAAGCCTGAA (sugars k3 d10 k3, PS)
1 µM
  target mRNA inhibition: 42%

## GTAGATGGTAAGTCAA (sugars k3 d10 k3, PS)
0.02 µM
  target mRNA inhibition: 20%
0.078 µM
  target mRNA inhibition: 35%
0.313 µM
  target mRNA inhibition: 55%
1 µM
  target mRNA inhibition: 86%
1.25 µM
  target mRNA inhibition: 84%
5 µM
  target mRNA inhibition: 88%

## GTAGTCTGCCTGCCTA (sugars k3 d10 k3, PS)
1 µM
  target mRNA inhibition: 68%

## GTATAGTTATCTTCTC (sugars kkdddddddddkekek, PS)
1 µM
  target mRNA inhibition: 49%

## GTATCTTAAGAGAAGG (sugars k3 d10 k3, PS)
1 µM
  target mRNA inhibition: 30%

## GTATTGAGATGACAGT (sugars k3 d10 k3, PS)
0.02 µM
  target mRNA inhibition: 0%
0.078 µM
  target mRNA inhibition: 0%
0.313 µM
  target mRNA inhibition: 3%
1 µM
  target mRNA inhibition: 68%
1.25 µM
  target mRNA inhibition: 47%
5 µM
  target mRNA inhibition: 73%

## GTATTTGAGATTCACC (sugars k3 d10 k3, PS)
1 µM
  target mRNA inhibition: 41%

## GTATTTGGGTGTTCTG (sugars k3 d10 k3, PS)
1 µM
  target mRNA inhibition: 36%

## GTCACCTTTCATAATG (sugars k3 d1 m1 d8 k3, PS)
1 µM
  target mRNA inhibition: 40%

## GTCAGACCTCTGTGAA (sugars k3 d10 k3, PS)
1 µM
  target mRNA inhibition: 34%

## GTCATAAAGGTGGGAT (sugars k3 d10 k3, PS)
1 µM
  target mRNA inhibition: 28%

## GTCCACCTTTAAATGG (sugars k3 d10 k3, PS)
1 µM
  target mRNA inhibition: 33%

## GTCCATGCAAAAGCAT (sugars k3 d10 k3, PS)
1 µM
  target mRNA inhibition: 62%

## GTCGGTCACCTTTCAT (sugars kkdddddddddkekek, PS)
1 µM
  target mRNA inhibition: 57%

## GTCTAAACATCTCTGG (sugars k3 d1 m1 d8 k3, PS)
1 µM
  target mRNA inhibition: 47%

## GTCTAAATTATTGCCT (sugars k3 d10 k3, PS)
1 µM
  target mRNA inhibition: 45%

## GTCTACCTCTAAGTTA (sugars k3 d10 k3, PS)
1 µM
  target mRNA inhibition: 3%

## GTCTCCAATACAGGCC (sugars k3 d10 k3, PS)
1 µM
  target mRNA inhibition: 47%

## GTCTTAAACCTTCCCT (sugars k3 d10 k3, PS)
1 µM
  target mRNA inhibition: 63%

## GTCTTAAACCTTCCCT (sugars kkdddddddddkekek, PS)
1 µM
  target mRNA inhibition: 28%

## GTCTUGATGTAGTGGG (sugars k3 d1 m1 d8 k3, PS)
1 µM
  target mRNA inhibition: 63%

## GTGAAAGCCAACAGCG (sugars k3 d10 k3, PS)
1 µM
  target mRNA inhibition: 62%

## GTGAACCCAGTATTCA (sugars k3 d10 k3, PS)
1 µM
  target mRNA inhibition: 1%

## GTGCATCTTAAGATAC (sugars k3 d10 k3, PS)
1 µM
  target mRNA inhibition: 47%

## GTGCCAAACCAATGTT (sugars k3 d1 m1 d8 k3, PS)
1 µM
  target mRNA inhibition: 30%

## GTGGCATGGCTACAGA (sugars k3 d10 k3, PS)
1 µM
  target mRNA inhibition: 56%

## GTGGCATGGCTACAGA (sugars kkdddddddddkekek, PS)
1 µM
  target mRNA inhibition: 59%

## GTGGGAGTCGGATTAT (sugars k3 d10 k3, PS)
1 µM
  target mRNA inhibition: 37%

## GTGTAAGCTGAGAGTT (sugars k3 d1 m1 d8 k3, PS)
1 µM
  target mRNA inhibition: 55%

## GTGTAAGCTGAGAGTT (sugars k3 d9 k3 e1, PS)
1 µM
  target mRNA inhibition: 45%

## GTGTAAGCTGAGAGTT (sugars k3 d10 k3, PS)
1 µM
  target mRNA inhibition: 60%

## GTGTAGAATTGTCTGT (sugars k3 d10 k3, PS)
1 µM
  target mRNA inhibition: 42%

## GTGTTCTTGTTGATAT (sugars k3 d10 k3, PS)
0.02 µM
  target mRNA inhibition: 13%
0.078 µM
  target mRNA inhibition: 25%
0.313 µM
  target mRNA inhibition: 59%
1 µM
  target mRNA inhibition: 81%
1.25 µM
  target mRNA inhibition: 80%
5 µM
  target mRNA inhibition: 93%

## GTGTTCTTGTTGATAT (sugars kkdddddddddkekek, PS)
1 µM
  target mRNA inhibition: 63%

## GTTAAGCAGATGGCTT (sugars k3 d10 k3, PS)
1 µM
  target mRNA inhibition: 41%

## GTTACCAGAGCATTCA (sugars k3 d10 k3, PS)
0.02 µM
  target mRNA inhibition: 19%
0.078 µM
  target mRNA inhibition: 36%
0.313 µM
  target mRNA inhibition: 63%
1 µM
  target mRNA inhibition: 73%
1.25 µM
  target mRNA inhibition: 74%
5 µM
  target mRNA inhibition: 92%

## GTTAGCAGCTAAAATC (sugars k3 d10 k3, PS)
1 µM
  target mRNA inhibition: 45%

## GTTAGCTAAGGGAGAG (sugars k3 d10 k3, PS)
1 µM
  target mRNA inhibition: 18%

## GTTATAAGTTTCATGT (sugars k3 d10 k3, PS)
1 µM
  target mRNA inhibition: 21%

## GTTATTCTCTTGACAA (sugars k3 d9 k3 e1, PS)
1 µM
  target mRNA inhibition: 35%

## GTTCAAATTGGATGCA (sugars k3 d10 k3, PS)
1 µM
  target mRNA inhibition: 68%

## GTTCATTCGAATTTCT (sugars k3 d10 k3, PS)
0.02 µM
  target mRNA inhibition: 0%
0.078 µM
  target mRNA inhibition: 19%
0.313 µM
  target mRNA inhibition: 60%
1 µM
  target mRNA inhibition: 76%
1.25 µM
  target mRNA inhibition: 87%
5 µM
  target mRNA inhibition: 88%

## GTTCTTAATTACATTC (sugars k3 d10 k3, PS)
1 µM
  target mRNA inhibition: 64%

## GTTGACTAATGCAAGA (sugars k3 d10 k3, PS)
1 µM
  target mRNA inhibition: 59%

## GTTGATAAAATAGGGT (sugars k3 d10 k3, PS)
1 µM
  target mRNA inhibition: 42%

## GTTGATATTCTGTGGC (sugars k3 d1 m1 d8 k3, PS)
1 µM
  target mRNA inhibition: 68%

## GTTGATATTCTGTGGC (sugars kkdddddddddkekek, PS)
1 µM
  target mRNA inhibition: 69%
